Tested on: common gut microbes
Assay: Gut microbe growth on carbohydrate food sources (96-well carbohydrate array, A600 growth curves), whole panel
Format: cell-based
Conditions: all of the gut microflora cultures, sole carbohydrate source, anaerobic, 37° C.
Description: The ability of common gut microbes to grow on carbohydrate food sources was measured using a custom carbohydrate array constructed in a 96-well format. See for example, Martens E C, et al, “Recognition and Degradation of Plant Cell Wall Polysaccharides by Two Human Gut Symbionts,” PLOS Biology, volume 9, issue 12, page e1001221 (2011) and Martens E C, Chiang H C, Gordon J I, “Mucosal glycan foraging enhances fitness and transmission of a saccharolytic human gut bacterial symbiont.” Cell Host Microbe 4: 447-457 (2008). Each well of a flat bottom 96-well plate was loaded with 100 µL of each sterilized carbohydrate stock at 2× concentration.
Each substrate was represented in […] on each assay plate in two non-adjacent wells. Two carbohydrate-free water wells were included as negative controls. […] Plates were then loaded into an automated plate handling device coupled to an absorbance reader. Absorbance at 600 nm (A600) was measured for each well at 10-15 min intervals. […]

SMILES: CC(=O)N[C@H]1C(O)O[C@H](CO)[C@@H](O)[C@@H]1O (stereo partly shown) [N-acetylglucosamine]
- growth of the gut microflora cultures on the carbohydrate: grew well

From patent US20210121486A1, “ANIMAL THERAPEUTIC AND FEED COMPOSITIONS AND METHODS OF USE” (Cadena Bio, Inc., priority 2015, published 2021)
